From paper PMC6389962 (Nature Communications, 2019) come the findings set out here.

The half-life is the time in which the quantity being followed falls by half. As a reminder, the amount remaining is what is left of the initial amount, in per cent. Broadly, the EC50 is the concentration that produces a half-maximal response.

Data set [1] has as its target T1, mouse GLP-1 receptor (Mus musculus, UniProt O35659).
T1 sequence (O35659 22-463): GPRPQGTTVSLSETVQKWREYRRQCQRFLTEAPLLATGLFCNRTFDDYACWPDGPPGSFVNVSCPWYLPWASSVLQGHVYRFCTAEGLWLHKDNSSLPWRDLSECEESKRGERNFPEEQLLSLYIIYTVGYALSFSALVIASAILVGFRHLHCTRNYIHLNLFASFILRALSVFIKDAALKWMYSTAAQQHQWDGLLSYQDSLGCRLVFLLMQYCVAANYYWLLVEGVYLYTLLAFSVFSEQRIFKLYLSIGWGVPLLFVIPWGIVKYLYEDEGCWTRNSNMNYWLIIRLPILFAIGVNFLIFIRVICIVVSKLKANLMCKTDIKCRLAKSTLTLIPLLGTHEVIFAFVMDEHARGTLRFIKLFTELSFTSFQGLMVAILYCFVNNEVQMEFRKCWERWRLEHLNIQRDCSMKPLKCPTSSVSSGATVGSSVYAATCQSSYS
The following applies: for Potency (%), percentage of potency compare to GLP-1-G^2: cAMP production, from EC50. In general terms: Cyclic AMP is a second messenger, typically raised through Gs and lowered through Gi signalling.

The nature of a further data set: in vitro. The following applies: mouse, plasma. On the procedure: The oligomer was then diluted 1/50 with a solution of plasma/PBS pH 7.4 (1:1) to afford a final concentration of 5 µM and incubated at 37 °C (4 µL of the stock solution was diluted with 196 µL of plasma/PBS, pH 7.4, 1:1). Each compound was also incubated in the absence of plasma (196 µL of H2O/PBS, pH 7.4, 1:1). At the indicated time (20 min and 60 min) an aliquot of 70 µL was removed from each experimental reaction and pipetting into 175 µL of acetonitrile at 0 °C to quench the reaction (t = 0 min was determined using the reaction without plasma). The samples were frozen at –80 °C before analysis. The frozen samples were defrosted, stirred with a vortex 5 min and finally centrifuged 5 min at 16 °C (1500 × g). The supernatant was analysed by LC-MS. The time course of oligomer degradation was determined by integrating the area of the peak in the extracted ion chromatogram.
Supplementar y Figur e 2 : Mouse plasma degradation assay. […] Data are
mean ± SEM, n = 4. Source data are provided as a Source Data file (T able 2 tab).
Supplementar y Figur e 3.
Data are mean ± SEM, n = 3.
Source data are provided as a Source Data file […]

Data set [2] relates to fasted normal mice (C57BL/6J). In words: Intraperitoneal glucose tolerance test (IPGTT) in fasted normal mice. The following applies: for AUC: IPGTT 5 min (Fig 4a), blood glucose AUC 0-120 min. The format is in vivo, mouse. The method, then:
In a second study, an IPGTT was performed 30 min after i.v. injections of 1, 14 and the vehicle (Fig. 4b). […] A further IPGTT study was done with a glucose challenge after 2 h of the dosing to investigate the prolonged activity of hybrids 14, 22 and 23 (Fig. 4c).
Fig. 4 IPGTT studies in mice. a–d Intraperitoneal glucose tolerance test (IPGTT) at different time after dosing in fasted normal mice (C57BL/6J, male, 20–25 g). Dosage: 200 μg kg^−1 (50 nmol kg^−1) i.v. Formulation: 20 μg mL^−1 in PBS 1×. IPGTT: glucose 2 g kg^−1 i.p. at T0. a IPGTT after 5 min (n = 4). b IPGTT after 30 min (n = 6). c IPGTT after 2 h (n = 6). d IPGTT after 4 h (n = 3). Area under the curve (AUC) of the corresponding IPGTT curve. Data are mean ± SEM. […] Source data are provided as a Source Data file
After the acclimation period (at least 5 days), mice (male C57BL/6J mice (Charles River laboratories) 6 weeks old, 20–25 g) were randomized into groups according to their body weight. The mice were fasted for 6 h prior being acutely treated via i.v. route (5 µg per mouse i.v. (200 μg kg^−1, 50 nmol kg^−1)) formulated at 20 µg mL^−1 in PBS 1×. The IPGTTs were performed (glucose 2 g kg^−1 i.p.) 5 min, 30 min, 2 h or 4 h after dosing and blood glucose was measured at different time points after the glucose challenge.

For another data set, the system named is normal mice (C57BL/6J). As to the kind of experiment: Blood glucose study in normal fed mice. The class given is in vivo, mouse. Details: key to In vivo activity (indicator): + active; +++: + + + more active. The following applies: for In vivo activity (indicator): mice, 50 nmol kg−1 i.v.; for time after dosing for which the blood glucose decrease is preserved / effect on blood glucose concentration: normal fed C57BL/6J mice, n = 3, 5 μg per mouse (50 nmol kg−1) i.v.; for effect on blood glucose concentration: monitored 6 h. On the procedure:
In the first study, we evaluated the effect of the analogues on the blood glucose concentration of normal mice (Fig. 3). The fed mice were treated with the analogues and their blood glucose concentration was monitored before and after dosing for 6 h. […] Indeed, a decrease of blood glucose concentration is observed after 30 min and the effect is preserved for 4 h after dosing.
Fig. 3 Blood glucose study in mice. a–c Blood glucose concentration in normal mice (C57BL/6J, male, 20–25 g, n = 3) before and after dosing: 5 μg per mouse (50 nmol kg^−1) i.v. Formulation: 20 μg mL^−1 in PBS 1×. The dosing was done at T0. Data are mean ± SEM. […] Source data are provided as a Source Data file
After the acclimation period (at least 5 days), mice (male C57BL/6J mice (Charles River laboratories) 8 weeks old, 20–25 g) were randomized into 10 groups (n = 3 per group) according to their body weight. They were acutely treated via i.v. route at 10 am (5 µg per mouse). Blood glucose was measured before dosing and at 30 min, 1, 2, 4, 6 h after dosing in fed conditions.

Data set [3] concerns the target T1, mouse GLP-1 receptor. As to the kind of experiment: cell-based.
Setting [4] is: fasted C57BL/6J mice, 200 μg kg−1 (50 nmol kg−1) i.v., glucose 2 g kg−1 i.p., n = 6.
The mark [5] stands for this setting: read-out: Top (best-fit value), variable slope four-parameter fit, unconstrained, 14: experiment 1.

Read-outs that look alike come from different tables or passages of the source. Starred links: 1 amine or outer side, 2 acyl side, 3 side chain; linkers in the order of their positions; H or OH if unused. Positions of bridges follow the written chain, without caps; N, C: chain ends. Residues, ends and D or L forms follow the SMILES beside them. Chains are numbered I, II in the order given. X2 = C[C@@H](CNC(=O)N[C@@H](C)CNC(=O)N[C@@H](C)CNC(=O)N[C@@H](C)CNC(=O)[*:2])NC(=O)NC[C@H](CCC(=O)O)NC(=O)NC[C@H](Cc1ccc(O)cc1)N[*:1]; X1 = C[C@@H](CNC(=O)N[C@@H](C)CNC(=O)[*:2])NC(=O)NC[C@H](C)N[*:1]

Take `CC[C@H](C)[C@H](NC(=O)[C@H](Cc1ccccc1)NC(=O)NC[C@H](C)NC(=O)NC[C@H](C)NC(=O)NC[C@H](C)NC(=O)[C@H](CCC(N)=O)NC(=O)CNC(=O)[C@H](CCC(=O)O)NC(=O)[C@H](CC(C)C)NC(=O)[C@H](Cc1ccc(O)cc1)NC(=O)[C@H](CO)NC(=O)[C@H](CO)NC(=O)[C@@H](NC(=O)[C@H](CC(=O)O)NC(=O)[C@H](CO)NC(=O)[C@@H](NC(=O)[C@H](Cc1ccccc1)NC(=O)[C@@H](NC(=O)CNC(=O)[C@H](CCC(=O)O)NC(=O)CNC(=O)[C@@H](N)Cc1c[nH]cn1)[C@@H](C)O)[C@@H](C)O)C(C)C)C(=O)N[C@@H](C)C(=O)N[C@@H](Cc1c[nH]c2ccccc12)C(=O)N[C@@H](CC(C)C)C(=O)N[C@H](C(=O)N[C@@H](CCCCN)C(=O)NCC(=O)N[C@@H](CCCNC(=N)N)C(=O)NCC(N)=O)C(C)C` [compound 14, GG2[A^uA^uA^u]^18-21] (I: H-HGEGTFTSDVSSYLEGQ / II: FIAWLVKGRG-NH2; linker I:C-II:N via X1): at mouse GLP-1 receptor [1], the “Potency (%), percentage of potency compare to GLP-1-G^2” value was 6%. Besides, the half-life in “in vitro” (pH 7.4) is 38 min. The amount remaining at 20 min, 5 µM in “in vitro” (pH 7.4, % remaining analogue) was found to be 66.9%. Besides, the amount remaining at 1 h, 5 µM in the data set “in vitro” (pH 7.4, % remaining analogue) came out at 30.5%. In addition, the AUC turned out to be 16833 mg·min/dL in data set [2] (mean of n = 4, 2018-03-08); 18150 mg·min/dL in data set [2] (single animal, 1st of group); 13233 mg·min/dL in data set [2] (single animal, 2nd of group); 18503 mg·min/dL in data set [2] (single animal, 3rd of group); 17445 mg·min/dL in data set [2] (single animal, 4th of group). Also, the “activity in IPGTT 4 h after dosing” value in data set [2] (fasted C57BL/6J mice, 200 μg kg−1 (50 nmol kg−1) i.v., glucose 2 g kg−1 i.p., n = 3) is “still active after 6 h of the treatment”. The “activity in IPGTT 5 min after dosing” value in data set [2] (fasted C57BL/6J mice, 200 μg kg−1 (50 nmol kg−1) i.v., glucose 2 g kg−1 i.p., n = 4) is “both analogues were active”. For the same compound, in data set [2] (setting [4]), the “activity in IPGTT 30 min after dosing” value is “demonstrated full activity”. In data set [2] (setting [4]), the “activity in IPGTT 2 h after dosing” value is reported as “good control of the blood glucose concentration during the IPGTT”. Besides, the “In vivo activity (indicator)” value with normal mice (C57BL/6J) is on record as “+++”. For the same compound, in the data set on normal mice (C57BL/6J), the “time after dosing for which the blood glucose decrease is preserved” value is 4 h. Also, in the data set on normal mice (C57BL/6J), the “effect on blood glucose concentration” value is “showed an improved efficacy compare to the native peptide 1”. Also, a half-maximal response on mouse GLP-1 receptor [3] (EC50) required 4.1 nM. The Emax at mouse GLP-1 receptor [3] (read-out: Top (best-fit value), fit with BOTTOM = 0%, 14: experiment 1) worked out at 116%; on mouse GLP-1 receptor [3] (read-out: Top (best-fit value), fit with BOTTOM = 0%, 14 experiment 2), 117%; at mouse GLP-1 receptor [3] (read-out: Top (best-fit value), fit with BOTTOM = 0%, 14 experiment 3), 100%; at mouse GLP-1 receptor [3] (read-out: Top (best-fit value), fit with BOTTOM = 0%, 14 experiment 4) it was 116%; at mouse GLP-1 receptor [3] (setting [5]), 103%; at mouse GLP-1 receptor [3] (read-out: Top (best-fit value), variable slope four-parameter fit, unconstrained, 14 experiment 2), 116%. In addition, the Emax on mouse GLP-1 receptor [3] (read-out: Top (best-fit value), variable slope four-parameter fit, unconstrained, 14 experiment 3) stood at 99.8%; on mouse GLP-1 receptor [3] (read-out: Top (best-fit value), variable slope four-parameter fit, unconstrained, 14 experiment 4), 119%.

Consider `CC[C@H](C)[C@H](NC(=O)[C@H](Cc1ccccc1)NC(=O)NC[C@H](C)NC(=O)NC[C@H](C)NC(=O)NC[C@H](C)NC(=O)NC[C@H](C)NC(=O)NC[C@H](CCC(=O)O)NC(=O)NC[C@H](Cc1ccc(O)cc1)NC(=O)[C@H](Cc1ccc(O)cc1)NC(=O)[C@H](CO)NC(=O)[C@H](CO)NC(=O)[C@@H](NC(=O)[C@H](CC(=O)O)NC(=O)[C@H](CO)NC(=O)[C@@H](NC(=O)[C@H](Cc1ccccc1)NC(=O)[C@@H](NC(=O)CNC(=O)[C@H](CCC(=O)O)NC(=O)CNC(=O)[C@@H](N)Cc1c[nH]cn1)[C@@H](C)O)[C@@H](C)O)C(C)C)C(=O)N[C@@H](C)C(=O)N[C@@H](Cc1c[nH]c2ccccc12)C(=O)N[C@@H](CC(C)C)C(=O)N[C@H](C(=O)N[C@@H](CCCCN)C(=O)NCC(=O)N[C@@H](CCCNC(=N)N)C(=O)NCC(N)=O)C(C)C` [compound 23, GG2[Y^uE^uA^uA^uA^uA^u]^14-21] (I: H-HGEGTFTSDVSSY / II: FIAWLVKGRG-NH2; linker I:C-II:N via X2), for which, at mouse GLP-1 receptor [1], the “LogEC50 (best-fit value)” value was -8.466 and the “Potency (%), percentage of potency compare to GLP-1-G^2” value is 7%. The compound also gave a half-life at 5 µM in the data set “in vitro” (pH 7.4) of 39 min. For the same compound, the amount remaining at 1 h, 5 µM in the data set “in vitro” (pH 7.4, % remaining analogue) was determined as 24.8%. Besides, in data set [2] (setting [4]), the “activity in IPGTT 2 h after dosing” value is recorded as “good control of the blood glucose concentration during the IPGTT”. For the same compound, in the data set on normal mice (C57BL/6J), the “In vivo activity (indicator)” value was “+++”, the “time after dosing for which the blood glucose decrease is preserved” value amounted to 4 h and the “effect on blood glucose concentration” value was “showed an improved efficacy compare to the native peptide 1”. This compound also returned an EC50 at mouse GLP-1 receptor [3] of 3.4 nM. For the same compound, the Emax on mouse GLP-1 receptor [3] (setting [5]) amounted to 100%.
